From patent EP3494850B1, “WET WIPE WITH HYDROXYACETOPHENON” (Dr. Schumacher GmbH, priority 2017, dated 2019)

Tested on: Haut der Probanden
Assay: Patch test for skin tolerance on 50 subjects
Assay type: in vivo
Details: 48 h under occlusion on the back, read at 48 h and 72 h (erythema, scaling, fissures)
Text: Zur Prüfung der Hautverträglichkeit des Tränkungsmittels, mit dem erfindungsgemäße Feuchttücher getränkt sind, wird ein Patch-Test an 50 Probanden durchgeführt. Mit einem Patch-Test können dermatologische und kosmetische Produkte auf ihr irritatives Potential untersucht werden. Bei den 50 ausgewählten Personen im Alter zwischen 18 und 69 Jahren handelte es sich um 28 Hautgesunde, 2 Atopiker, 2 Allergiker und 18 Personen mit empfindlicher Haut.
Für den Patch-Test wurde eine gemäß der in Tabelle 1 (Beispiel 1) angegebenen Rahmenrezeptur zusammengesetzte O/W-Emulsion für 48 Stunden unverdünnt auf den Rücken der Probanden mit Hilfe von quadratischen Kunststoffkammern (allergEAZE® clear Patch Test Chambers; SmartPractice®, Phoenix, AZ) unter Okklusion appliziert. Als Positivkontrolle diente der Modellschadstoff Natriumlaurylsulfat (SDS) in einer Konzentration von 1 % in Wasser. Als negative Kontrolle diente Wasser.
Die Bewertung der Testreaktionen erfolgte nach 48 Stunden (30 Minuten nach der Entfernung der Okklusion) sowie nach 72 Stunden, wobei die Haut der Probanden jeweils hinsichtlich Erythem, Schuppung und Fissuren untersucht wurde.

## CCCCCCCCCCCCOS(=O)(=O)O [SDS, Natriumlaurylsulfat]
  Testpersonen mit Reaktion im Patch-Test: 14 Testpersonen
